In ChEMBL document CHEMBL1201861, “Genomics of Drug Sensitity in Cancer screening data, Wellcome Trust Sanger Institute”:

Key:
Assay type in all cases: functional, cell-based
[1] = test system: ECC12; experiment: cells; conditions: Homo sapiens
Description: SANGER: Inhibition of human ECC12 cell growth in a cell viability assay.

[2] = test system: RL95-2; experiment: cells; conditions: Homo sapiens;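 note: RL95-2 growth inhibition determined through a cell viability readout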
Description: SANGER: Inhibition of human RL95-2 cell growth in a cell viability assay.

[3] = test system: EW-12; experiment: SANGER: Inhibition of human EW-12 cell growth in a cell viability assay.
[4] = test system: CRO-AP2; experiment: SANGER: Inhibition of human CRO-AP2 cell growth in a cell viability assay.
[5] = test system: NCI-H128; experiment: SANGER: Inhibition of human NCI-H128 cell growth in a cell viability assay.
[6] = test system: NCI-H2227; experiment: cells; conditions: Homo sapiens;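 note: growth inhibition of the human cell line, read out with a cell viability assay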
Description: SANGER: Inhibition of human NCI-H2227 cell growth in a cell viability assay.

[7] = test system: SKM-1; experiment: SANGER: Inhibition of human SKM-1 cell growth in a cell viability assay.
[8] = test system: NBsusSR; experiment: cells; conditions: Homo sapiens;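 note: growth inhibition of the human cell line, read out with a cell viability assay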
Description: SANGER: Inhibition of human NBsusSR cell growth in a cell viability assay.

[9] = test system: LU-135; experiment: cells; conditions: Homo sapiens
Description: SANGER: Inhibition of human LU-135 cell growth in a cell viability assay.

[10] = test system: CHP-134; experiment: SANGER: Inhibition of human CHP-134 cell growth in a cell viability assay.
[11] = test system: SW 1116; experiment: cells; conditions: Homo sapiens;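 note: growth inhibition of SW1116 cells, read out with a cell viability assay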
Description: SANGER: Inhibition of human SW1116 cell growth in a cell viability assay.

[12] = test system: TGBC11TKB; experiment: cells; conditions: Homo sapiens;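 note: growth inhibition of human TGBC11TKB cells, measured by a cell viability assay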
Description: SANGER: Inhibition of human TGBC11TKB cell growth in a cell viability assay.

[13] = test system: TI-73; experiment: cells; conditions: Homo sapiens;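 note: cell viability assay measuring how much compounds suppress growth of the cultured cell line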
Description: SANGER: Inhibition of human TI-73 cell growth in a cell viability assay.

[14] = test system: YH-13; experiment: cells; conditions: Homo sapiens;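 note: cell viability readout of growth suppression in the human YH-13 cell line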
Description: SANGER: Inhibition of human YH-13 cell growth in a cell viability assay.

[15] = test system: SW900; experiment: cells; conditions: Homo sapiens;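 note: IC50 is the concentration that inhibits SW900 cell growth, measured by a cell viability assay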
Description: SANGER: Inhibition of human SW900 cell growth in a cell viability assay.

[16] = test system: H-EMC-SS; experiment: cells; conditions: Homo sapiens
Description: SANGER: Inhibition of human H-EMC-SS cell growth in a cell viability assay.

[17] = test system: KNS-62; experiment: cells; conditions: Homo sapiens;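 note: inhibition of cell growth, read out with a cell viability assay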
Description: SANGER: Inhibition of human KNS-62 cell growth in a cell viability assay.

[18] = test system: BALL-1; experiment: cells; conditions: Homo sapiens;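 note: growth inhibition of BALL-1 cells, read out with a cell viability assay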
Description: SANGER: Inhibition of human BALL-1 cell growth in a cell viability assay.

[19] = test system: ZR-75-30; experiment: cells; conditions: Homo sapiens;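 note: growth inhibition of ZR-75-30 cells, measured with a cell viability readout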
Description: SANGER: Inhibition of human ZR-75-30 cell growth in a cell viability assay.

[20] = test system: RH-18; experiment: cells; conditions: Homo sapiens, Rh18;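 note: growth inhibition of human RH-18 cells, read out with a cell viability assay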
Description: SANGER: Inhibition of human RH-18 cell growth in a cell viability assay.

[21] = test system: BT-549; experiment: cells; conditions: Homo sapiens
Description: SANGER: Inhibition of human BT-549 cell growth in a cell viability assay.

[22] = test system: NCI-H2291; experiment: cells; conditions: Homo sapiens
Description: SANGER: Inhibition of human NCI-H2291 cell growth in a cell viability assay.

[23] = test system: NCI-H2029; experiment: cells; conditions: Homo sapiens;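 note: Read-out is a viability assay on the cultured cells, and IC50 is the concentration that suppresses cell growth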
Description: SANGER: Inhibition of human NCI-H2029 cell growth in a cell viability assay.

[24] = test system: NCI-H1666; experiment: cells; conditions: Homo sapiens;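 note: growth inhibition of the cell line, read out with a cell viability assay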
Description: SANGER: Inhibition of human NCI-H1666 cell growth in a cell viability assay.

[25] = test system: D-566MG; experiment: cells; conditions: Homo sapiens
[26] = test system: OC-314; experiment: cells; conditions: Homo sapiens
Description: SANGER: Inhibition of human OC-314 cell growth in a cell viability assay.

[27] = test system: NCI-H1048; experiment: cells; conditions: Homo sapiens;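 note: growth inhibition of human NCI-H1048 cells, read out with a cell viability assay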
Description: SANGER: Inhibition of human NCI-H1048 cell growth in a cell viability assay.

[28] = test system: EPLC-272H; experiment: cells; conditions: Homo sapiens
Description: SANGER: Inhibition of human EPLC-272H cell growth in a cell viability assay.

Compound | IC50 [8] | IC50 [9] | IC50 [10] | IC50 [11] | IC50 [12] | IC50 [13] | IC50 [14] | IC50 [15] | IC50 [16] | IC50 [17] | IC50 [18] | IC50 [19] | IC50 [20] | IC50 [21] | IC50 [22] | IC50 [23] | IC50 [24] | IC50 [25] | IC50 [26] | IC50 [27] | further results
Cc1ccc(NC(=O)c2cccc(C(C)(C)C#N)c2)cc1Nc1ccc2ncn(C)c(=O)c2c1 |  |  |  |  |  |  |  |  |  |  |  |  |  |  |  |  |  |  |  |  | IC50 [1]: 1.71 µM; IC50 [2]: > 4 µM; IC50 [3]: > 4 µM; IC50 [4]: > 4 µM; IC50 [5]: > 4 µM; IC50 [6]: > 4 µM; IC50 [7]: > 4 µM
CCCS(=O)(=O)Nc1ccc(F)c(C(=O)c2c[nH]c3ncc(Cl)cc23)c1F [PLX-4720] | > 10 µM | > 10 µM | > 10 µM | > 10 µM | > 10 µM | 6.01 µM | > 10 µM | > 10 µM | > 10 µM | > 10 µM | > 10 µM | > 10 µM | > 10 µM | > 10 µM | > 10 µM | > 10 µM | > 10 µM | > 10 µM | > 10 µM | > 10 µM | IC50 [28]: > 10 µM
Cn1c(=O)n(-c2ccc(C(C)(C)C#N)cc2)c2c3cc(-c4cnc5ccccc5c4)ccc3ncc21 [DACTOLISIB] | 0.0246 µM | > 2 µM | 0.14 µM | > 2 µM | 0.41 µM | 0.0253 µM | 0.0219 µM | 0.155 µM | 0.147 µM | 0.0454 µM | > 2 µM | > 2 µM | 0.395 µM | 0.119 µM | 0.598 µM | 1.42 µM | 0.00971 µM | 0.0177 µM | 0.0387 µM | 0.0863 µM | IC50 [28]: 0.0444 µM
